Assay results: patent US20250108141A1, “TOPICAL FORMULATIONS FOR TARGETED DELIVERY OF THERAPEUTICS” (UNM RAINFOREST INNOVATIONS, priority 2023, published 2025)
Entries after “also recorded” stand apart in the source; their conditions may differ.

Legend:
[1] = system: HPV16-infected SG3 cells; assay: MK-8353 treatment of HPV16-infected SG3 cells, immunoblot; format: cell-based; conditions: MK-8353 dissolved in Tc, 48 h
Description: The p-ERK1/2 inhibitor MK-8353 (Selleck Chemicals LLC, Houston, TX) was dissolved in 2-(2-ethoxyethoxy)ethanol (Tc) at 5 mM. HPV16-infected SG3 cells were plated in complete medium and then treatments were initiated without active agent or with increasing concentrations of MK-8353 in serum-free medium. At 24 h post treatment, fresh treatments were added and maintained for an additional 24 h. Cells treated for 48 h were lysed with detergent-containing buffer and 50 μg of each sample was analyzed by SDS-PAGE and immunoblot for the proteins of interest including p-ERK1/2, p-Fra1, HPV16 E7, and actin.

[2] = system: MmuPV1; assay: MmuPV1-induced tail tumor (wart) model, oral gavage; format: in vivo; conditions: oral gavage every 48 hours for four weeks, cobimetinib 7.5 or 15 mg/kg, trametinib 1.0 or 2.0 mg/kg, athymic nude mice
Description: FIG. 3. […] Female Hsd:Athymic Nude-Foxn1^nu mice were infected with 2×10^8 viral genome equivalents (VGE) of MmuPV1 virions. Tumors (warts) were allowed to grow for 6 weeks before randomizing into vehicle or treatment groups (n=6 per group) with each group having an average tumor volume (length×width×height) of approximately 40 mm^3. Mice were dosed by oral gavage treatment every 48 hours for four weeks before harvesting each tumor for histology. (A) Quantification of tail tumor volumes over 32 days of treatment in mice infected with MmuPV1 and treated with vehicle, 7.5 mg/kg cobimetinib, or 15 mg/kg cobimetinib. (B) Quantification of tail tumor volume over 32 days of treatment in mice infected with MmuPV1 and treated with vehicle (same as in FIG. 3A), 1.0 mg/kg trametinib, or 2.0 mg/kg trametinib. Statistical analyses by two-way Anova, Dunnett's T3 test ([…], ** p<0.01). (C) Representative images of tail tumors of a mouse treated with vehicle only. (D) Representative images of tail tumors of a mouse treated with 7.5 mg/kg cobimetinib or 15 mg/kg cobimetinib. (E) Representative images of tail tumors of a mouse treated with 1.0 mg/kg trametinib or 2.0 mg/kg trametinib.

[3] = system: HPV16-infected cells established from cervix (W12-E); assay: HPV16-infected W12-E 3D organotypic raft tissue, trametinib added systemically; format: cell-based; conditions: 10 nM trametinib added systemically every 48 hours on days 8, 10, 12
Description: FIG. 2. Histology data showing that HPV16 oncogene transcription and activity is modulated by MEK1/2 activation in 3D organotypic epithelial tissue cultures. HPV16-infected cells established from cervix (W12-E) were cultured as raft tissues for 14 days. Panels A-D are taken from tissues cultured under normal conditions. Panels E-H are images of tissue cultured with 10 ng/mL EGF added systemically (in the cell culture medium below the basal layer and collagen matrix) every 48 hours on days 8, 10, and 12 post raft tissue lifting to the air-liquid interface. Panels I-L are images of tissues cultured with 10 nM trametinib added systemically every 48-hours on days 8, 10, and 12 post raft tissue lifting to the air-liquid interface. Tissues were examined for morphology (Top, H&E staining), phosphorylated ERK1/2 (p-ERK1/2) immunohistochemistry (brown), HPV E6&E7 mRNA in situ hybridization (red), and E7 activity via proxy p16INK4A immunohistochemistry. Broken lines underscore the basal cell layer above the collagen matrix; bars=100 μm.

[4] = system: HPV16-infected SG3 human keratinocytes; assay: Topical treatment of HPV16-infected 3D organotypic epithelial raft tissues; format: cell-based
Description: FIG. 6. […] HPV16-infected (SG3) cells were cultured as raft tissues for 12 days. Duplicate raft tissues were left untreated, or topically treated with 0.5 ml of either vehicle gel (20% Tc, 2.5% HPC in PBS) alone or 30 μM trametinib in vehicle gel for 48 hours. One raft from each duplicate set was collected for total protein extraction for SDS-PAGE and immunoblots (A), the second raft was harvested for tissue fixation, paraffin embedding, and cross-sectioning of tissues for histology (B-J). […] Panels B-D show histology by H&E staining in untreated, vehicle-treated, and 30 μM trametinib-treated rafts. […] Broken lines underscore the basal cell layer.
FIG. 18. Experiment akin to that in FIG. 6, except that it uses 2.5% HPC and 10% Tc for the vehicle. Drug treatment includes 15 μM trametinib. Experimental groups were treated with the topical formulations for 24 hours or 48 hours before harvesting for immunoblots and tissue sectioning.
The experimental protocol used in this example is illustrated in FIG. 5. A semi-solid collagen-fibroblast matrix was created to act as a dermal equivalent (stage 1). HPV16-infected SG3 human keratinocytes (cells) that maintained circular HPV16 genomes extrachromosomally were seeded on the top of the dermal equivalent submerged in growth medium (stage 2). After the HPV-infected keratinocytes grew to confluency (2-3 days), growth medium was removed, and the dermal equivalent was lifted to the air-liquid interface above fresh growth medium (stage 3). Fresh medium was replaced every two days. This allowed the keratinocytes to stratify and differentiate into a multilayered epithelium akin to human skin/mucosa within 10-12 days (Stage 4).
The MEK1/2 inhibitor trametinib was dissolved in diethylene glycol monoethyl ether (TRANSCUTOL; Gattefosse SAS, Saint-Priest, France). The trametinib-2-(2-ethoxyethoxy)ethanol solution was combined with hydroxypropyl cellulose (KLUCEL MXF Pharma, 850 kDa), a pharmaceutical grade thermal gelation agent. Formulations of 30 μM trametinib, 20% 2-(2-ethoxyethoxy)ethanol, and 2.5% hydroxypropyl cellulose applied one time to stratified and differentiated HPV16-infected three-dimensional organotypic epithelial “raft” tissues cultured at the air-liquid interface for 12 days. Each treatment was carried out in duplicate. Tissues were harvested daily two to five days post treatment for total protein extraction and histological analyses (FIG. 6). Specifically, each raft tissue was divided in half with a scalpel. One half was subject to total protein extraction, SDS-PAGE and immunoblot; the second half was fixed in 10% neutral buffered formalin, embedded in paraffin, and sectioned ([…]) on to microscope slides. The tissue sections were subject to histology, immunohistochemistry, or in situ hybridization.
Formulations according to TABLE 2 were prepared. Epithelial raft tissues were prepared as described in Example 1. Each formulation was topically applied to duplicate HPV-infected raft epithelial tissues.
Each formulation was left on the tissue raft undisturbed for 48 hours. 48 hours after treatment, tissues were harvested for protein extraction and histological analysis as described above.
In Example 3, epithelial raft tissues were topically treated in duplicate with formulations including trametinib and 2-(2-ethoxyethoxy)ethanol and analyzed for p-ERK1/2 and E7 protein expression after three days (72 hours). Epithelial raft tissues were prepared as described in Example 1. Formulations were prepared according to TABLE 2. Each epithelial raft tissue was topically treated with one formulation. 72 hours after treatment, epithelial raft tissues were collected for protein extraction.

[5] = system: HPV16-infected SG3 human keratinocytes; assay: as above; format: cell-based; conditions: TABLE 2 formulations, single topical treatment, 96 hours
[6] = system: MmuPV1; assay: Topical gel treatment of MmuPV1-induced tumors in vivo; parameters: species or system mice; conditions: daily topical gel (2.5% HPC, 15%-18% TRANSCUTOL) with trametinib 150 μM-600 μM; starting tumors 145.3 mm^3 to 279.4 mm^3
Description: Mice bearing MmuPV1-induced tumors ranging in volume from 145.3 mm^3 to 279.4 mm^3 were treated daily with a topical gel (2.5% HPC, 15%-18% TRANSCUTOL (Gattefosse SAS, Saint-Priest, France)) containing the MEK inhibitor trametinib (150 μM-600 μM).

[7] = increasing concentrations in serum-free medium
[8] = 15 μM trametinib in 2.5% HPC and 10% Tc vehicle, 24 hours or 48 hours
[9] = TABLE 2 formulations, 30 μM trametinib, single topical treatment, 48 hours

CS[C@@]1(C(=O)Nc2ccc3[nH]nc(-c4ccc(OC(C)C)nc4)c3c2)CCN(CC(=O)N2CC=C(c3ccc(-c4ncn(C)n4)cc3)CC2)C1 [MK-8353]
phosphorylation of ERK1/2 (p-ERK1/2) [1]: does not necessarily prevent
levels of the HPV16 E7 oncoprotein [1, 7]: reduce the levels
p-ERK1/2 activity as measured by p-Fra1 phosphorylation [1, 7]: Suppresses

O=C(c1ccc(F)c(F)c1Nc1ccc(I)cc1F)N1CC(O)([C@@H]2CCCCN2)C1 [cobimetinib, (S)-[3,4-Difluoro-2-(2-fluoro-4-iodophenylamino)phenyl][3-hydroxy-3-(piperidin-2-yl)azetidine-1-yl]methanone]
tail tumor (wart) volume [2]: suppresses MmuPV1-induced benign tumor (e.g., wart) growth
tail tumor (wart) volume ([2]; listed as Cobimetinib): suppresses wart growth but did not lead to regression

CC(=O)Nc1cccc(-n2c(=O)n(C3CC3)c(=O)c3c(Nc4ccc(I)cc4F)n(C)c(=O)c(C)c32)c1 [trametinib, N-(3-{3-Cyclopropyl-5-[(2-fluoro-4-iodophenyl)amino]-6,8-dimethyl-2,4,7-trioxo-3,4,6,7-tetrahydropyrido[4,3-d]pyrimidin-1 (2H)-yl}phenyl)acetamide]
E7 activity (E7 surrogate p16INK4A protein) [3]: suppresses
MEK activation (p-ERK1/2 immunohistochemistry) [3]: suppresses
production of E6/E7 mRNA (in situ hybridization) [3]: suppresses
hyperproliferation ([3]; raft tissues cultured 14 days): suppresses
E6/E7 mRNA detection [4, 8]: reduced
p-ERK1/2 protein detection [4, 8]: reduced
p-ERK1/2 by immunoblot ([4]; 30 μM trametinib, 20% 2-(2-ethoxyethoxy)ethanol, 2.5% HPC gel, applied one time, two days (48 hours) post treatment): complete suppression; also recorded: reduction in p-ERK1/2 to almost undetectable levels
p-ERK1/2 suppression, later harvests ([4]; 30 μM trametinib, 20% Tc, 2.5% HPC gel, applied one time, three to five days post treatment): sustained
p-ERK1/2 by immunohistochemistry ([4]; 30 μM trametinib, 20% Tc, 2.5% HPC gel, 48 hours): abrogates
HPV16 E6/E7 mRNA by in situ hybridization ([4]; 30 μM trametinib, 20% Tc, 2.5% HPC gel, two days post treatment): complete suppression; also recorded: reduces E6/E7 mRNA to undetectable levels
HPV16 E7 protein by immunoblot [4, 9]: suppresses
p-ERK1/2 by immunoblot [4, 9]: suppresses
hyperplasia ([4]; one-time topical treatment, 30 μM trametinib, 20% Tc, 2.5% HPC): suppressed
E7 by immunoblot [5]: decrease
p-ERK1/2 by immunoblot [5]: decrease
MmuPV1 tumor volume [6]: promotes MmuPV1 tumor regression
tail tumor (wart) volume [2]: leads to tumor regression; also recorded: regression of warts to a smaller size than those originally treated
